Experimental data reported in patent publication US9174992B2, “Heterobicyclic compounds” (Amgen Inc., priority 2012, dated 2015).
Values joined by “and” are separate entries in the source; they are usually repeats but may differ in a detail not shown here. Identical values can stand only once.

Target: PDE10A (UniProt Q9Y233)
Experiment: PDE10 enzyme inhibition, IMAP TR-FRET assay (Example A, MPDE10A7 Enzyme Activity and Inhibition)
Type: biochemical
Details: approximate IC50 value, Table 10
Description: Enzyme Activity. An IMAP TR-FRET assay was used to analyze the enzyme activity (Molecular Devices Corp., Sunnyvale Calif.). 10 μL of serial diluted PDE10A (BPS Bioscience, San Diego, Calif.) or tissue homogenate was incubated with equal volumes of diluted fluorescein labeled cAMP or cGMP for 90 min in 384-well Polypropylene assay plates (Greiner, Monroe, N.C.) at room temperature. After incubation, the reaction was stopped by adding 55 μL of diluted binding reagents and was incubated for 4 hours to overnight at room temperature. The plates were read on an Envision (Perkin Elmer, Waltham, Mass.) for time resolved fluorescence resonance energy transfer. The data were analyzed with Genedata Screener® (Lexington, Mass.).
Enzyme Inhibition. To check the inhibition profile, 0.2 μL of serial diluted compounds were incubated with 10 μL of diluted PDE10 enzyme (BPS Bioscience, San Diego, Calif.) or tissue homogenate in a 384-well Polypropylene assay plate (Greiner, Monroe, N.C.) for 60 min at room temperature. After incubation, 10 μL of diluted fluorescein labeled cAMP or cGMP substrate were added and incubated for 90 min at room temperature. The reaction was stopped by adding 55 μL of diluted binding reagents and plates were read on an Envision (Perkin Elmer, Waltham, Mass.) for time resolved fluorescence resonance energy transfer. The data were analyzed with Genedata Screener® (Lexington, Mass.).
IC50 curves were generated from the raw data collected from the […] and fitted with a four-parameter logistic equation using in-house data analysis tool, Activity Base.

Compound	IC50
CC1(C)C(=O)N([C@H]2C[C@H](Nc3nccc(C(F)(F)F)n3)C2)c2ncccc21 [Example 67]	35.6 nM and 59 nM
CC1(C)C(=O)N([C@H]2C[C@H](Nc3nc(-c4ccccc4)cs3)C2)c2ncccc21 [Example 69, 3,3-Dimethyl-1-(trans-3-((4-phenylthiazol-2-yl)amino)cyclobutyl)-1H-pyrrolo[2,3-b]pyridine-2(3H)-one]	167 nM
CC1(C)C(=O)N([C@H]2C[C@H](Nc3ncc(C(F)(F)F)cn3)C2)c2ncccc21 [Example 70, 1-(trans-3-((5-(trifluoromethyl)pyrimidin-2-yl)amino)cyclobutyl)-3,3-dimethyl-1H-pyrrolo[2,3-b]pyridin-2(3H)-one]	180 nM
CC1(C)C(=O)N([C@H]2C[C@@H](Nc3nc4ccccc4s3)C2)c2ncccc21 [Example 81, 1-(Cis-3-(benzo[d]thiazol-2-ylamino)cyclobutyl)-3,3-dimethyl-1H-pyrrolo[2,3-b]pyridin-2(3H)-one]	1.26 nM
O=c1n(C2CC2)c2cccnc2n1[C@H]1C[C@H](Nc2nc3ccccc3s2)C1 [Example 85, 3-(trans-3-(benzo[d]thiazol-2-ylamino)cyclobutyl)-1-cyclopropyl-1H-imidazo[4,5-b]pyridin-2(3H)-one]	0.0254 nM
Cn1c(=O)n([C@H]2C[C@H](Nc3nc4ccccc4s3)C2)c2ncc(F)cc21 [Example 86, 3-(trans-3-(benzo[d]thiazol-2-ylamino)cyclobutyl)-6-fluoro-1-methyl-1H-imidazo[4,5-b]pyridin-2(3H)-one]	0.0655 nM
O=c1n(C2CC2)c2cc(F)cnc2n1[C@H]1C[C@H](Nc2nc3ccccc3s2)C1 [Example 87, 3-(trans-3-(benzo[d]thiazol-2-ylamino)cyclobutyl)-6-fluoro-1-cyclopropyl-1H-imidazo[4,5-b]pyridin-2(3H)-one]	0.0794 nM
Cn1c(=O)n([C@H]2C[C@H](Nc3nc4ccccc4s3)C2)c2ncccc21 [Example 88, 3-(trans-3-(benzo[d]thiazol-2-ylamino)cyclobutyl)-1-methyl-1H-imidazo[4,5-b]pyridin-2(3H)-one]	0.0911 nM
O=c1n(C2CCCC2)c2cccnc2n1[C@H]1C[C@H](Nc2nc3ccccc3s2)C1 [Example 89, 3-(trans-3-(benzo[d]thiazol-2-ylamino)cyclobutyl)-1-cyclopentyl-1H-imidazo[4,5-b]pyridin-2(3H)-one]	0.131 nM
O=c1n(C2CC2)c2nccnc2n1[C@H]1C[C@H](Nc2nc3ccccc3s2)C1 [Example 90, 1-(trans-3-(benzo[d]thiazol-2-ylamino)cyclobutyl)-3-cyclopropyl-1H-imidazo[4,5-b]pyrazin-2(3H)-one]	0.388 nM
O=c1n(C2CC2)c2cncnc2n1[C@H]1C[C@H](Nc2nc3ccccc3s2)C1 [Example 91, 9-(trans-3-(benzo[d]thiazol-2-ylamino)cyclobutyl)-7-cyclopropyl-7H-purin-8(9H)-one]	0.469 nM
O=c1[nH]c2cccnc2n1[C@H]1C[C@H](Nc2nc3ccc(F)cc3s2)C1 [Example 92, 3-(trans-3-((6-fluorobenzo[d]thiazol-2-yl)amino)cyclobutyl)-1H-imidazo[4,5-b]pyridin-2(3H)-one]	0.664 nM
Cn1c(=O)n([C@H]2C[C@H](Nc3nc4ccccc4s3)C2)c2ncncc21 [Example 93, 9-(trans-3-(benzo[d]thiazol-2-ylamino)cyclobutyl)-7-methyl-7H-purin-8(9H)-one]	0.878 nM
O=c1[nH]c2cccnc2n1[C@H]1C[C@H](Nc2nc3ccccc3s2)C1 [Example 94, 3-(trans-3-(benzo[d]thiazol-2-ylamino)cyclobutyl)-1H-imidazo[4,5-b]pyridin-2(3H)-one]	0.91 nM
Cn1c(=O)n([C@H]2C[C@H](Nc3nc4ccccc4s3)C2)c2nccnc21 [Example 95, 1-(trans-3-(benzo[d]thiazol-2-ylamino)cyclobutyl)-3-methyl-1H-imidazo[4,5-b]pyrazin-2(3H)-one]	0.971 nM
O=c1[nH]c2cccnc2n1[C@H]1C[C@H](Nc2ccc3ccccc3n2)C1 [Example 96, 3-(trans-3-(quinolin-2-ylamino)cyclobutyl)-1H-imidazo[4,5-b]pyridin-2(3H)-one]	1.09 nM
O=c1[nH]c2cncnc2n1[C@H]1C[C@H](Nc2nc3ccccc3s2)C1 [Example 97, 9-(trans-3-(benzo[d]thiazol-2-ylamino)cyclobutyl)-7H-purin-8(9H)-one]	3.03 nM
O=c1[nH]c2cccnc2n1[C@H]1C[C@H](Nc2nc3c(F)cccc3s2)C1 [Example 98]	4.82 nM
O=c1[nH]c2cccnc2n1[C@H]1C[C@H](Nc2nc3cc(F)ccc3s2)C1 [Example 99, 3-(trans-3-((5-fluorobenzo[d]thiazol-2-yl)amino)cyclobutyl)-1H-imidazo[4,5-b]pyridin-2(3H)-one]	7.7 nM

Continued, values first:

IC50	Compound
43.3 nM	CC1(C)C(=O)N([C@H]2C[C@H](Nc3nccc(Cl)n3)C2)c2ncccc21 [Example 64, 1-(trans-3-((4-chloropyrimidin-2-yl)amino)cyclobutyl)-3,3-dimethyl-1H-pyrrolo[2,3-b]pyridin-2(3H)-one]
44.8 nM	CC1(C)C(=O)N([C@H]2C[C@H](Nc3cnccn3)C2)c2ncccc21 [Example 65, 3,3-Dimethyl-1-(trans-3-(pyrazin-2-ylamino)cyclobutyl)-1H-pyrrolo[2,3-b]pyridine-2(3H)-one]
51.1 nM	CC1(C)C(=O)N([C@H]2C[C@H](Nc3cccc(Cl)n3)C2)c2ncccc21 [Example 66, 1-(trans-3-((6-chloropyridin-2-yl)amino)cyclobutyl)-3,3-dimethyl-1H-pyrrolo[2,3-b]pyridin-2(3H)-one]
158 nM	CC1(C)C(=O)N([C@H]2C[C@H](Nc3cccnn3)C2)c2ncccc21 [Example 68, 3,3-Dimethyl-1-(trans-3-(pyridazin-3-ylamino)cyclobutyl)-1H-pyrrolo[2,3-b]pyridine-2(3H)-one]
244 nM	CC1(C)C(=O)N([C@H]2C[C@H](Nc3ncc(F)cn3)C2)c2ncccc21 [Example 71, 1-(trans-3-((5-fluoropyrimidin-2-yl)amino)cyclobutyl)-3,3-dimethyl-1H-pyrrolo[2,3-b]pyridin-2(3H)-one]
352 nM	CC1(C)C(=O)N([C@H]2C[C@H](Nc3ccnc(Cl)n3)C2)c2ncccc21 [Example 72, 1-(trans-3-((2-cholropyrimidin-4-yl)amino)cyclobutyl)-3,3-dimethyl-1H-pyrrolo[2,3-b]pyridin-2(3H)-one]
1.54 nM	Cc1ccc(N[C@H]2CC[C@H](N3C(=O)C(C)(C)c4nccnc43)CC2)nc1 [Example 73, 7,7-dimethyl-5-(trans-4-((5-methylpyridin-2-yl)amino)cyclohexyl)-5H-pyrrolo[2,3-b]pyrazin-6(7H)-one]
2.88 nM	COc1ccc(N[C@H]2C[C@H](N3C(=O)C(C)(C)c4nccnc43)C2)nc1 [Example 74]
5.02 nM	Cc1ccc(N[C@H]2CC[C@H](N3C(=O)C(C)(C)c4nccnc43)CC2)nc1 [Example 75, 7,7-Dimethyl-5-(trans-4-((5-methylpyridin-2-yl)amino)cyclohexyl)-5H-pyrrolo[2,3-b]pyrazin-6(7H)-one]
51.1 nM	CC1(C)C(=O)N([C@H]2C[C@H](Nc3ccc(F)cn3)C2)c2nccnc21 [Example 76, 5-(trans-3-((5-fluoropyridin-2-yl)amino)cyclobutyl)-7,7-dimethyl-5H-pyrrolo[2,3-b]pyrazin-6(7H)-one]
1.29 nM	Cc1ccc(N[C@H]2CC[C@H](N3C(=O)C(C)(C)c4cccnc43)CC2)nc1 [Example 77, 3,3-Dimethyl-1-(trans-4-((5-methylpyridin-2-yl)amino)cyclohexyl)-1H-pyrrolo[2,3-b]pyridin-2(3H)-one]
4.2 nM	CC1(C)C(=O)N([C@H]2C[C@H](Nc3ccc(C4CC4)cn3)C2)c2nccnc21 [Example 78, 5-(trans-3-((5-cyclopropylpyridin-2-yl)amino)cyclobutyl)-7,7-dimethyl-5H-pyrrolo[2,3-b]pyrazin-6(7H)-one]
6.15 nM	CC1(C)C(=O)N([C@H]2C[C@H](Nc3ncc(C4CC4)cn3)C2)c2ncccc21 [Example 79, 1-(trans-3-((5-cyclopropylpyrimidin-2-yl)amino)cyclobutyl)-3,3-dimethyl-1H-pyrrolo[2,3-b]pyridin-2(3H)-one]
1.43 nM	C=C(C)c1cnc(NC2CC(N3C(=O)C(C)(C)c4cccnc43)C2)nc1 (stereo not drawn) [Example 80, 3,3-dimethyl-1-(−3-((5-(prop-1-en-2-yl)pyrimidin-2-yl)amino)cyclobutyl)-1H-pyrrolo[2,3-b]pyridin-2(3H)-one]
2.83 nM	CC(C)c1cnc(N[C@H]2C[C@H](N3C(=O)C(C)(C)c4cccnc43)C2)nc1 [Example 82, 1-(trans-3-((5-isopropylpyrimidin-2-yl)amino)cyclobutyl)-3,3-dimethyl-1H-pyrrolo[2,3-b]pyridin-2(3H)-one]
7.72 nM	COc1cnc(N[C@H]2C[C@H](N3C(=O)C(C)(C)c4cccnc43)C2)nc1 [Example 83, 1-(trans-3-((5-methoxypyrimidin-2-yl)amino)cyclobutyl)-3,3-dimethyl-1H-pyrrolo[2,3-b]pyridin-2(3H)-one]
23.1 nM	CC(=O)c1ccc(N[C@H]2C[C@H](N3C(=O)C(C)(C)c4nccnc43)C2)nc1 [Example 84, 5-(trans-3-((5-acetylpyridin-2-yl)amino)cyclobutyl)-7,7-dimethyl-5H-pyrrolo[2,3-b]pyrazin-6(7H)-one]
